Tested on: a variety of test species
Assay: Post-emergence herbicidal activity
Format: in vivo
Set-up: key to ABUTH (Abutilon theophrasti) damage score / AMARE (Amaranthus retroflexus) damage score / ALOMY (Alopecurus myosuroides) damage score / ECHCG (Echinochloa crus-galli) damage score / ZEAMX (Zea mays) damage score / SOLNI (Solanum nigrum) damage score: 0 = no damage to plant, 5 = total damage to plant
Conditions: rate 1000 g/ha, evaluated after 13 days
Procedure: Seeds of a variety of test species were sown in standard soil in pots. After 8 days cultivation (post-emergence) under controlled conditions in a glasshouse (at 24/16° C., day/night; 14 hours light; 65% humidity), the plants were sprayed with an aqueous spray solution derived from the formulation of the technical active ingredient in acetone/water (50:50) solution containing 0.5% Tween 20 (polyoxyethelyene sorbitan monolaurate, CAS RN 9005-64-5). The test plants were then grown in a glasshouse under controlled conditions (at 24/16° C., day/night; 14 hours light; 65% humidity) and watered twice daily. After 13 days, the test was evaluated (5=total damage to plant; 0=no damage to plant, NC=not captured).

Row | SMILES | ABUTH (Abutilon theophrasti) damage score | ALOMY (Alopecurus myosuroides) damage score | AMARE (Amaranthus retroflexus) damage score | ECHCG (Echinochloa crus-galli) damage score | SETFA (Setaria faberi) damage score | ZEAMX (Zea mays) damage score | SOLNI (Solanum nigrum) damage score
1 | COC1=C(C)C(=O)N(c2cc(C(F)(F)F)c(C(C)=O)cn2)C1O (stereo not drawn) [AD2, 1-[5-acetyl-4-(trifluoromethyl)-2-pyridyl]-2-hydroxy-3-methoxy-4-methyl-2H-pyrrol-5-one] | 5 | 5 | 5 | 5 | 5 | 2 | 
2 | COC1=C(C)C(=O)N(c2nccc(C(F)(F)F)c2C#N)C1O (stereo not drawn) [AD5] | 5 | 4 | 5 | 4 | 4 | 2 | 
3 | COC1=C(C)C(=O)N(c2nccc(C(F)(F)F)c2F)C1O (stereo not drawn) [AD7] | 5 | 5 | 5 | 5 | 5 | 3 | 
4 | COC1=C(C)C(=O)N(c2cc(C(F)(F)F)c(OC)cn2)C1O (stereo not drawn) [AD10, 2-hydroxy-3-methoxy-1-[5-methoxy-4-(trifluoromethyl)-2-pyridyl]-4-methyl-2H-pyrrol-5-one] | 5 | 5 | 5 | 5 | 5 | 2 | 
5 | CCC/C=C/c1cnc(N2C(=O)C(C)=C(OC)C2O)cc1C(F)(F)F (stereo not drawn) [AD13] | 5 | 5 | 5 | 5 | 5 | 1 | 
6 | COC1=C(C)C(=O)N(c2cc(C(F)(F)F)c(SC)cn2)C1O (stereo not drawn) [AD14, 2-hydroxy-3-methoxy-4-methyl-1-[5-methylsulfanyl-4-(trifluoromethyl)-2-pyridyl]-2H-pyrrol-5-one] | 5 | 3 | 4 | 5 | 5 | 1 | 
7 | COC1=C(C)C(=O)N(c2cc(C(F)(F)F)c(C#C[Si](C)(C)C)cn2)C1O (stereo not drawn) [AD15, 2-hydroxy-3-methoxy-4-methyl-1-[4-(trifluoromethyl)-5-(2-trimethylsilylethynyl)-2-pyridyl]-2H-pyrrol-5-one] | 3 | 3 | 5 | 4 | 5 | 2 | 
8 | COC1=C(C)C(=O)N(c2cc(C(C)F)ccn2)C1O (stereo not drawn) [AD18] | 4 | 3 | 1 | 4 | 1 | 0 | 
9 | C#Cc1cnc(N2C(=O)C(C)=C(OC)C2O)cc1C(F)(F)F (stereo not drawn) [AD20] | 4 | 4 | 5 | 4 | 5 | 0 | 
10 | COC1=C(C)C(=O)N(c2cc(C(F)(F)F)c(C=C(C)C)cn2)C1O (stereo not drawn) [AD21, 2-hydroxy-3-methoxy-4-methyl-1-[5-(2-methylprop-1-enyl)-4-(trifluoromethyl)-2-pyridyl]-2H-pyrrol-5-one] | 5 | 2 | 5 | 5 | 4 | 0 | 
11 | COC1=C(C)C(=O)N(c2nccc(C(F)(F)F)c2Br)C1O (stereo not drawn) [AD25] | 1 | 1 | 2 | 1 | 2 | 1 | 
12 | COC1=C(C)C(=O)N(c2cc(C(F)(F)F)c(C#N)cn2)C1O (stereo not drawn) [AD26, 6-(2-hydroxy-3-methoxy-4-methyl-5-oxo-2H-pyrrol-1-yl)-4-(trifluoromethyl)pyridine-3-carbonitrile] | 5 | 4 | 5 | 5 | 4 | 2 | 
13 | C=Cc1cnc(N2C(=O)C(C)=C(OC)C2O)cc1C(F)(F)F (stereo not drawn) [AD27] | 5 | 4 | 5 | 5 | 4 | 2 | 
14 | COC1=C(C)C(=O)N(c2cc(C(F)(F)F)c(C)cn2)C1O (stereo not drawn) [AD28] | 5 | 4 | 5 | 5 | 5 | 4 | 
15 | COC1=C(C)C(=O)N(c2ncc(Br)c(C(F)(F)F)c2Br)C1O (stereo not drawn) [AD29] | 0 | 1 | 0 | 0 | 0 | 1 | 
16 | COC1=C(C)C(=O)N(c2cc(C(F)(F)F)c(Cl)cn2)C1O (stereo not drawn) [AD30] | 5 | 5 | 5 | 5 | 4 | 1 | 
17 | COC1=C(C)C(=O)N(c2cc(C(F)(F)F)c(Br)cn2)C1O (stereo not drawn) [AD31, 1-[5-bromo-4-(trifluoromethyl)-2-pyridyl]-2-hydroxy-3-methoxy-4-methyl-2H-pyrrol-5-one] | 5 | 5 | 5 | 5 | 4 | 1 | 
18 | C=Cc1ccc(N2C(=O)C(C)=C(OC)C2O)nc1 (stereo not drawn) [AD33] | 2 | 1 | 1 | 3 | 2 | 0 | 
19 | COC1=C(C)C(=O)N(c2cc(C(F)(F)F)ccn2)C1O (stereo not drawn) [AD34] | 5 | 5 | 5 | 5 | 5 | 0 | 
20 | COC1=C(C)C(=O)N(c2ccc(C(F)(F)F)cn2)C1O (stereo not drawn) [AD35] |  | 3 | 5 | 3 | 4 | 0 | 5
21 | COC(=O)c1cnc(N2C(=O)C(C)=C(OC)C2O)cc1C(F)(F)F (stereo not drawn) [AD37] | 4 | 3 | 5 | 3 | 2 | 0 | 
22 | COC1=C(C)C(=O)N(c2cc(C(F)(F)F)c(/C(C)=C/C#N)cn2)C1O (stereo not drawn) [AD38, (E)-3-[6-(2-hydroxy-3-methoxy-4-methyl-5-oxo-2H-pyrrol-1-yl)-4-(trifluoromethyl)-3-pyridyl]but-2-enenitrile] | 5 | 5 | 5 | 5 | 5 | 0 | 
23 | COC1=C(C)C(=O)N(c2cc(OC(F)(F)F)ccn2)C1O (stereo not drawn) [AD39] | 4 | 4 | 2 | 4 | 4 | 0 | 
24 | COC1=C(C)C(=O)N(c2cc(C(C)(C)C)ccn2)C1O (stereo not drawn) [AD40] | 5 | 5 | 5 | 5 | 5 | 3 | 
25 | C=CCOC1=C(C)C(=O)N(c2cc(C(F)(F)F)ccn2)C1O (stereo not drawn) [AD42] | 5 | 4 | 5 | 5 | 5 | 2 | 
26 | CC1=C(OCC(F)(F)F)C(O)N(c2cc(C(F)(F)F)ccn2)C1=O (stereo not drawn) [AD44, 2-hydroxy-4-methyl-3-(2,2,2-trifluoroethoxy)-1-[4-(trifluoromethyl)-2-pyridyl]-2H-pyrrol-5-one] | 5 | 3 | 5 | 4 | 5 | 1 | 

— US9611248B2, “Chemical compounds” (Syngenta Participations AG, priority 2013, dated 2017)
